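In this assay, cells in 96-well plates receive the compound at five concentrations for 48 hours. Endpoints are linearly interpolated between the surrounding concentrations. GI50 marks 50% less growth.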 Active and inactive are the calls of the source. Cut-off read from the data, not from the text of the source: active = GI50 up to about 1.1 µM and inactive = higher.
Assays:
Test in all cases: DTP human tumour cell line panel, 48 h
M14 = tested on: M14
HOP-62 = tested on: HOP-62
RPMI-8226 = tested on: RPMI-8226
HT-29 = tested on: HT-29
SF-295 = tested on: SF-295
Malme-3M = tested on: Malme-3M
SNB-75 = tested on: SNB-75
MDA-N = tested on: MDA-N
SF-268 = tested on: SF-268
IGROV-1 = tested on: IGROV-1
CCRF-CEM = tested on: CCRF-CEM
Hs-578T = tested on: Hs-578T
NCI-H23 = tested on: NCI-H23
T47D = tested on: T47D
COLO 205 = tested on: COLO 205
EKVX = tested on: EKVX
HCT-15 = tested on: HCT-15
OVCAR-5 = tested on: OVCAR-5
SW-620 = tested on: SW-620
SR = tested on: SR
NCI-H522 = tested on: NCI-H522
DU-145 = tested on: DU-145
MDA-MB-435 = tested on: MDA-MB-435
MOLT-4 = tested on: MOLT-4
SK-MEL-5 = tested on: SK-MEL-5
CAKI-1 = tested on: CAKI-1
PC-3 = tested on: PC-3
K562 = tested on: K562
OVCAR-8 = tested on: OVCAR-8
786-0 = tested on: 786-0
NCI-H460 = tested on: NCI-H460
ACHN = tested on: ACHN
HOP-92 = tested on: HOP-92
BT-549 = tested on: BT-549
LOX IMVI = tested on: LOX IMVI
TK-10 = tested on: TK-10
U-251 = tested on: U-251
UO-31 = tested on: UO-31
NCI/ADR-RES = tested on: NCI/ADR-RES
OVCAR-3 = tested on: OVCAR-3
HCT-116 = tested on: HCT-116
HCC 2998 = tested on: HCC 2998
MCF7 = tested on: MCF7
SK-MEL-28 = tested on: SK-MEL-28
SN12C = tested on: SN12C
UACC-62 = tested on: UACC-62
SNB-19 = tested on: SNB-19
OVCAR-4 = tested on: OVCAR-4
SK-MEL-2 = tested on: SK-MEL-2
A549 = tested on: A549
UACC-257 = tested on: UACC-257
MDA-MB-231 = tested on: MDA-MB-231
SK-OV-3 = tested on: SK-OV-3
NCI-H226 = tested on: NCI-H226
SF-539 = tested on: SF-539
KM12 = tested on: KM12
RXF 393 = tested on: RXF 393
HL-60 = tested on: HL-60

CCCCCCCCCCCCCCCCCCNc1ccn(C2OC(COP(=O)(O)OCC3OC(n4cc(C)c(=O)[nH]c4=O)CC3N=[N+]=[N-])C(O)C2O)c(=O)n1 (configuration not stated)
GI50 (M14): 20.2 µM (inactive) | GI50 (HOP-62): 23.2 µM (inactive) | GI50 (RPMI-8226): 11.8 µM (inactive) | GI50 (HT-29): 19.2 µM (inactive) | GI50 (SF-295): 18.3 µM (inactive) | GI50 (Malme-3M): 16.9 µM (inactive) | GI50 (SNB-75): 25.8 µM (inactive) | GI50 (MDA-N): 43.7 µM (inactive) | GI50 (SF-268): 19.2 µM (inactive) | GI50 (IGROV-1): 19.1 µM (inactive) | GI50 (CCRF-CEM): 15.5 µM (inactive) | GI50 (Hs-578T): 23 µM (inactive) | GI50 (NCI-H23): 19.5 µM (inactive) | GI50 (T47D): 34.8 µM (inactive) | GI50 (COLO 205): 14.5 µM (inactive) | GI50 (EKVX): 26.3 µM (inactive) | GI50 (HCT-15): 18.8 µM | GI50 (OVCAR-5): 16.7 µM (inactive) | GI50 (SW-620): 22.5 µM (inactive) | GI50 (SR): 18.4 µM (inactive) | GI50 (NCI-H522): 13.3 µM (inactive) | GI50 (DU-145): 95.5 µM (inactive) | GI50 (MDA-MB-435): 23.8 µM (inactive) | GI50 (MOLT-4): 16.4 µM (inactive) | GI50 (SK-MEL-5): 22.8 µM (inactive) | GI50 (CAKI-1): 22.4 µM (inactive) | GI50 (PC-3): 8.81 µM (inactive) | GI50 (K562): 18.7 µM (inactive) | GI50 (OVCAR-8): 21.8 µM (inactive) | GI50 (786-0): 29.5 µM (inactive) | GI50 (NCI-H460): 21 µM (inactive) | GI50 (ACHN): 54 µM (inactive) | GI50 (HOP-92): 59.6 µM (inactive) | GI50 (BT-549): 19.7 µM (inactive) | GI50 (LOX IMVI): 16.4 µM (inactive) | GI50 (TK-10): 16.8 µM (inactive) | GI50 (U-251): 16.7 µM (inactive) | GI50 (UO-31): 21 µM (inactive) | GI50 (NCI/ADR-RES): 21 µM (inactive) | GI50 (OVCAR-3): 36.9 µM (inactive) | GI50 (HCT-116): 39.7 µM (inactive) | GI50 (HCC 2998): 15.1 µM (inactive) | GI50 (MCF7): 37 µM (inactive) | GI50 (SK-MEL-28): 18.6 µM (inactive) | GI50 (SN12C): 21.7 µM (inactive) | GI50 (UACC-62): 19.1 µM (inactive) | GI50 (SNB-19): 19.2 µM (inactive) | GI50 (OVCAR-4): 25.7 µM (inactive) | GI50 (SK-MEL-2): 22.8 µM (inactive) | GI50 (A549): 52 µM (inactive) | GI50 (UACC-257): 25.4 µM (inactive) | GI50 (MDA-MB-231): 22.1 µM (inactive) | GI50 (SK-OV-3): 18.9 µM (inactive) | GI50 (NCI-H226): 22.8 µM (inactive) | GI50 (SF-539): 17.8 µM (inactive) | GI50 (KM12): 20.3 µM (inactive)

COP(=O)(C(/C=C/c1ccccc1)OC(C)=O)[C@@H]1CCCC[C@H]1N(CC(C)(C)C)C(C)=O (some centres not stated)
GI50 (M14): 14.4 µM (inactive) | GI50 (HOP-62): 18.2 µM (inactive) | GI50 (HT-29): 10.2 µM (inactive) | GI50 (SF-295): 16.3 µM (inactive) | GI50 (Malme-3M): 18.2 µM (inactive) | GI50 (SNB-75): 3.94 µM (inactive) | GI50 (RXF 393): 7.29 µM (inactive) | GI50 (MDA-N): 15.6 µM (inactive) | GI50 (SF-268): 16.6 µM (inactive) | GI50 (IGROV-1): 10.6 µM (inactive) | GI50 (CCRF-CEM): 14.5 µM (inactive) | GI50 (Hs-578T): 12.8 µM (inactive) | GI50 (NCI-H23): 15.8 µM (inactive) | GI50 (T47D): 5.87 µM (inactive) | GI50 (COLO 205): 13.9 µM (inactive) | GI50 (EKVX): 20.7 µM (inactive) | GI50 (HCT-15): 15.9 µM | GI50 (OVCAR-5): 19.2 µM (inactive) | GI50 (SW-620): 16.7 µM (inactive) | GI50 (SR): 15 µM (inactive) | GI50 (NCI-H522): 12.1 µM (inactive) | GI50 (DU-145): 15 µM (inactive) | GI50 (MDA-MB-435): 14.5 µM (inactive) | GI50 (MOLT-4): 7.93 µM (inactive) | GI50 (SK-MEL-5): 14 µM (inactive) | GI50 (CAKI-1): 28 µM (inactive) | GI50 (PC-3): 14 µM (inactive) | GI50 (K562): 22.4 µM (inactive) | GI50 (OVCAR-8): 16.8 µM (inactive) | GI50 (786-0): 17.3 µM (inactive) | GI50 (NCI-H460): 13.4 µM (inactive) | GI50 (ACHN): 16.3 µM (inactive) | GI50 (BT-549): 16.8 µM (inactive) | GI50 (HL-60): 14.6 µM (inactive) | GI50 (LOX IMVI): 15.8 µM (inactive) | GI50 (TK-10): 20.2 µM (inactive) | GI50 (U-251): 15.8 µM (inactive) | GI50 (UO-31): 13.9 µM (inactive) | GI50 (NCI/ADR-RES): 15.1 µM (inactive) | GI50 (OVCAR-3): 14.5 µM (inactive) | GI50 (HCT-116): 10.9 µM (inactive) | GI50 (HCC 2998): 12.6 µM (inactive) | GI50 (MCF7): 22.5 µM (inactive) | GI50 (SK-MEL-28): 20.4 µM (inactive) | GI50 (SN12C): 14.8 µM (inactive) | GI50 (UACC-62): 14 µM (inactive) | GI50 (SNB-19): 29 µM (inactive) | GI50 (OVCAR-4): 5.62 µM (inactive) | GI50 (SK-MEL-2): 15.4 µM (inactive) | GI50 (A549): 16.8 µM (inactive) | GI50 (UACC-257): 14.3 µM (inactive) | GI50 (MDA-MB-231): 14.8 µM (inactive) | GI50 (SK-OV-3): 23.1 µM (inactive) | GI50 (NCI-H226): 12 µM (inactive) | GI50 (SF-539): 17.9 µM (inactive) | GI50 (KM12): 26.2 µM (inactive)
